The record followed here is PubChem BioAssay AID342 (DTP/NCI, 2004).

Values joined by “and” are separate entries in the source; they are usually repeats but may differ in a detail not shown here. Equal entries are not always repeated.

This assay deals with Swiss mice, Sarcoma 180 sc, mean tumor weight T/C. Nature of the assay: NCI In Vivo Anticancer Drug Screen. Data for tumor model Sarcoma 180 (subcutaneous) in Swiss mice. Conditions: endpoint: mean tumor weight, higher = larger tumour. The method, boiled down: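 Readout is the ratio of treated-group measurement to vehicle-control measurement (T/C), based on survival or tumor size in mice carrying transplanted tumors.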

[1] abbreviates: dose: 20.0 mg/kg/injection, schedule: Q01DX007 (ip), vehicle: saline.
The mark [2] stands for this setting: dose: 40.0 mg/kg/injection, schedule: Q01DX007 (ip), vehicle: saline.

One may read the T/C as the ratio of treated to control. Regarding `Nc1ncnc2c1ncn2C1OC(COCc2ccccc2)C(OCc2ccccc2)C1OCc1ccccc1` (configuration not stated), the T/C was 88 % of control (dose: 10.0 mg/kg/injection, schedule: Q01DX007 (ip), vehicle: saline); 86 % of control and 107 % of control under setting [1]; 64 % of control and 87 % of control under setting [2]; 99 % of control (dose: 160.0 mg/kg/injection, schedule: Q01DX007 (ip), vehicle: saline).

With `C=CCOc1ccc2c(c1)CC[C@@H]1[C@@H]2CC[C@@]2(C)[C@H]1CC[C@]2(C)O`, the T/C runs as follows: (dose: 0.5 mg/kg/injection, schedule: Q#A X014 (sc), vehicle: steriod suspending solution) 80 % of control; (dose: 5.0 mg/kg/injection, schedule: Q#A X014 (sc), vehicle: steriod suspending solution) 116 % of control; (dose: 50.0 mg/kg/injection, schedule: Q#A X014 (sc), vehicle: steriod suspending solution) 71 % of control.

Take `c1ccn(-c2nc(-n3cccc3)nc(-n3cccc3)n2)c1`: the T/C is 47 % of control (dose: 31.25 mg/kg/injection, schedule: Q#A X014 (ip), vehicle: carboxymethylcellulose (CMC)); 43 % of control (dose: 62.5 mg/kg/injection, schedule: Q#A X014 (ip), vehicle: carboxymethylcellulose (CMC)); 46 % of control (dose: 125.0 mg/kg/injection, schedule: Q#A X014 (ip), vehicle: carboxymethylcellulose (CMC)).

Turning to `COc1ccc(-c2ccc(OC)c(OC)c2OC)c(N)c1`, the T/C runs as follows: (dose: 65.0 mg/kg/injection, schedule: Q01DX007 (ip), vehicle: methylcellulose (MC)) 98 % of control; (dose: 125.0 mg/kg/injection, schedule: Q01DX007 (ip), vehicle: methylcellulose (MC)) 97 % of control; (dose: 250.0 mg/kg/injection, schedule: Q01DX007 (ip), vehicle: methylcellulose (MC)) 87 % of control; (dose: 500.0 mg/kg/injection, schedule: Q01DX007 (ip), vehicle: methylcellulose (MC)) 63 % of control; (dose: 625.0 mg/kg/injection, schedule: Q01DX007 (ip), vehicle: methylcellulose (MC)) 58 % of control; (dose: 750.0 mg/kg/injection, schedule: Q01DX007 (ip), vehicle: methylcellulose (MC)) 86 % of control.

On to `O=NN1CCN(N=O)CC1`, for which the T/C is, setting by setting: (dose: 5.06 mg/kg/injection, schedule: Q#A X014 (ip), vehicle: carboxymethylcellulose (CMC)) 100 % of control; (dose: 20.25 mg/kg/injection, schedule: Q#A X014 (ip), vehicle: carboxymethylcellulose (CMC)) 101 % of control; (dose: 40.5 mg/kg/injection, schedule: Q#A X014 (ip), vehicle: carboxymethylcellulose (CMC)) 88 % of control.

Regarding `CCCCNP(=O)(N1CC1C)N1CC1C` (configuration not stated), the T/C runs as follows: (dose: 7.0 mg/kg/injection, schedule: Q#A X014 (ip), vehicle: saline) 64 % of control; (dose: 10.5 mg/kg/injection, schedule: Q#A X014 (ip), vehicle: saline) 62 % of control; (dose: 15.5 mg/kg/injection, schedule: Q#A X014 (ip), vehicle: saline) 50 % of control; (dose: 23.5 mg/kg/injection, schedule: Q#A X014 (ip), vehicle: saline) 39 % of control.

`CN(CC#N)/N=N/c1nc[nH]c1C(N)=O`: the T/C (dose: 225.0 mg/kg/injection, schedule: Q01DX007 (ip), vehicle: carboxymethylcellulose (CMC)) is 38 % of control.

Consider `Nc1nc(=S)c2ncn(C3CCCO3)c2[nH]1` (configuration not stated), for which the T/C was 43 % of control and 46 % of control (dose: 20.0 mg/kg/injection, schedule: Q01DX007 (ip), vehicle: carboxymethylcellulose (CMC)); 18 % of control and 38 % of control (dose: 45.0 mg/kg/injection, schedule: Q01DX007 (ip), vehicle: carboxymethylcellulose (CMC)); 9 % of control (dose: 90.0 mg/kg/injection, schedule: Q01DX007 (ip), vehicle: carboxymethylcellulose (CMC)).

As for `C[C@@H]1CC2=CC(=O)C=C[C@]2(C)[C@H]2CC[C@@]3(C)[C@@H](CC[C@]3(C)O)[C@H]12`, the T/C is 61 % of control and 72 % of control (dose: 111.0 mg/kg/injection, schedule: Q01DX007 (sc), vehicle: steriod suspending solution); 43 % of control and 62 % of control (dose: 167.0 mg/kg/injection, schedule: Q01DX007 (sc), vehicle: steriod suspending solution); 57 % of control and 76 % of control (dose: 250.0 mg/kg/injection, schedule: Q01DX007 (sc), vehicle: steriod suspending solution); 38 % of control and 42 % of control and 55 % of control (dose: 375.0 mg/kg/injection, schedule: Q01DX007 (sc), vehicle: steriod suspending solution); 47 % of control and 69 % of control (dose: 750.0 mg/kg/injection, schedule: Q01DX007 (sc), vehicle: steriod suspending solution).

On to `CCCCCCC(=O)NC1=C(N2CC2)C(=O)C(NC(=O)CCCCCC)=C(N2CC2)C1=O`, for which the T/C is 42 % of control and 50 % of control and 56 % of control (dose: 27.75 mg/kg/injection, schedule: Q#A X014 (ip), vehicle: methylcellulose (MC)); 38 % of control and 50 % of control and 53 % of control (dose: 41.5 mg/kg/injection, schedule: Q#A X014 (ip), vehicle: methylcellulose (MC)); 31 % of control (dose: 62.5 mg/kg/injection, schedule: Q#A X014 (ip), vehicle: methylcellulose (MC)).

`Cc1cc2nc3c(=O)[nH]c(=O)nc-3n(CCOC(=O)CCC(=O)O)c2cc1C`: the T/C was 109 % of control (dose: 14.37 mg/kg/injection, schedule: Q#A X014 (ip), vehicle: carboxymethylcellulose (CMC)); 122 % of control (dose: 28.75 mg/kg/injection, schedule: Q#A X014 (ip), vehicle: carboxymethylcellulose (CMC)); 87 % of control (dose: 57.5 mg/kg/injection, schedule: Q#A X014 (ip), vehicle: carboxymethylcellulose (CMC)); 56 % of control (dose: 115.0 mg/kg/injection, schedule: Q#A X014 (ip), vehicle: carboxymethylcellulose (CMC)).

As for `C#C[C@]1(OC(C)=O)CC[C@H]2[C@@H]3CC[C@H]4CC=CC[C@]4(C)[C@H]3CC[C@@]21C`, the T/C (dose: 2.5 mg/kg/injection, schedule: Q01DX007 (sc), vehicle: steriod suspending solution) is 84 % of control; the T/C (dose: 5.0 mg/kg/injection, schedule: Q01DX007 (sc), vehicle: steriod suspending solution) is 71 % of control; the T/C (dose: 10.0 mg/kg/injection, schedule: Q01DX007 (sc), vehicle: steriod suspending solution) is 102 % of control.

For the compound `COC(=O)c1cccc2c[n+]3c(cc12)-c1[nH]c2cc(OC)ccc2c1CC3`, the T/C runs as follows: (dose: 10.0 mg/kg/injection, schedule: Q01DX007 (ip), vehicle: other) 70 % of control; (dose: 50.0 mg/kg/injection, schedule: Q01DX007 (ip), vehicle: other) 73 % of control; (dose: 200.0 mg/kg/injection, schedule: Q01DX007 (ip), vehicle: other) 74 % of control.

As for `CCCCCCCCCCCCNCCCCCCCCCCCC`, the T/C was 107 % of control (dose: 2.5 mg/kg/injection, schedule: Q01DX007 (ip), vehicle: water); 54 % of control (dose: 5.0 mg/kg/injection, schedule: Q01DX007 (ip), vehicle: water); 60 % of control (dose: 7.5 mg/kg/injection, schedule: Q01DX007 (ip), vehicle: water); 44 % of control (dose: 10.0 mg/kg/injection, schedule: Q01DX007 (ip), vehicle: water).

As to `NN1CCCC1`, the T/C runs as follows: (dose: 33.0 mg/kg/injection, schedule: Q01DX007 (ip), vehicle: carboxymethylcellulose (CMC)) 86 % of control; (dose: 33.0 mg/kg/injection, schedule: Q01DX007 (ip), vehicle: saline) 161 % of control; (dose: 50.0 mg/kg/injection, schedule: Q01DX007 (ip), vehicle: carboxymethylcellulose (CMC)) 71 % of control; (dose: 50.0 mg/kg/injection, schedule: Q01DX007 (ip), vehicle: saline) 179 % of control; (dose: 75.0 mg/kg/injection, schedule: Q01DX007 (ip), vehicle: carboxymethylcellulose (CMC)) 20 % of control; (dose: 75.0 mg/kg/injection, schedule: Q01DX007 (ip), vehicle: saline) 86 % of control. For the same compound, the T/C was 70 % of control (dose: 113.0 mg/kg/injection, schedule: Q01DX007 (ip), vehicle: saline); 55 % of control (dose: 133.0 mg/kg/injection, schedule: Q01DX007 (ip), vehicle: saline); 36 % of control (dose: 200.0 mg/kg/injection, schedule: Q01DX007 (ip), vehicle: saline).

`CC1OC(OC2C(CO)OC(O[C@H]3CC[C@@]4(C)C(=CC[C@H]5[C@@H]6C[C@@H]7O[C@@]8(CC[C@H](C)CN8)[C@@H](C)[C@@H]7[C@@]6(C)CC[C@@H]54)C3)C(OC3OC(C)C(O)C(O)C3O)C2O)C(O)C(O)C1O` (some centres not stated): the T/C is 51 % of control (dose: 5.0 mg/kg/injection, schedule: Q01DX007 (ip), vehicle: saline); 62 % of control (dose: 15.0 mg/kg/injection, schedule: Q01DX007 (ip), vehicle: saline); 15 % of control under setting [1]; 21 % of control (dose: 30.0 mg/kg/injection, schedule: Q01DX007 (ip), vehicle: saline); 16 % of control under setting [2].

On to `Nc1nc(Cc2ccccc2)cc(=O)[nH]1`, for which the T/C (dose: 62.5 mg/kg/injection, schedule: Q01DX007 (ip), vehicle: water) is 88 % of control; the T/C (dose: 125.0 mg/kg/injection, schedule: Q01DX007 (ip), vehicle: water) is 78 % of control; the T/C (dose: 250.0 mg/kg/injection, schedule: Q01DX007 (ip), vehicle: water) is 67 % of control.

Take `COc1cc2c3c(c4ccc(OC)c(OC)c4c2cc1OC)CN1CCC[C@@H]1C3`: the T/C (dose: 12.0 mg/kg/injection, schedule: Q01DX007 (ip), vehicle: water) is 21 % of control.
